Results taken from patent US20250353898A1, “SERPIN PEPTIDE DERIVATIVES AND METHODS OF USING THE SAME” (priority 2022, published 2025).
Entries after “also recorded” stand apart in the source; their conditions may differ. Positions of bridges follow the written chain, without caps; N, C: chain ends. Non-standard residues stand in square brackets, D forms with d. No end group written: not given here. Nle = CCCC[C@H](N)C(=O)O; dDap = NC[C@@H](N)C(=O)O; Dap = NC[C@H](N)C(=O)O; Nal = naphthylalanine

Columns and labels:
TNFα = TNFα secretion in IMG microglial cells after LPS (ELISA); assay type: cell-based; details: for activity in reducing TNFα activation: A1-A15 screen, 50 or 100 μg/ml, FIG. 5; for activity in reducing TNFα activation / activity in reducing TNFα: LPS 100 ng/ml 24 hours; for activity in reducing TNFα: FIG. 6A/7, up to 50 μg/mL, versus SP163M, SA7; for EC50 TNFα: IMG microglial cells, LPS 100 ng/ml, 24 hours
Experimental: In the NFκB reporter cells, the NFκB inducible Secreted Embryonic Alkaline Phosphatase (SEAP) was measured in the supernatant. TNFα secretion in the supernatant was measured via ELISA.
(§1) Various SERPIN peptide derivatives were screened in vitro for their ability to reduce TNFα and NFκB secretion via LRP-1 activation. The NFκB reporter cells (THP1-XBlue-MD2-CD14 cells) were treated with each peptide derivative at various concentrations, up to 100 μg/ml before being insulted with LPS (5 ng/ml) and incubated overnight. The NFκB inducible Secreted Embryonic Alkaline Phosphatase (SEAP) was measured in the supernatant and read for absorbance. IMG Microglial cells were treated with each peptide derivative at various concentrations, up to 100 μg/ml before LPS (100 ng/ml) stimulation for 24 hours. An ELISA was used to measure TNFα in the supernatant ([…]).

NFκB = NFκB reporter assay (SEAP) in THP1-XBlue-MD2-CD14 cells after LPS; assay type: cell-based; details: for activity in reducing NFκB activation: LPS 5 ng/ml 24 hours; for EC50 NFκB: NFκB reporter cells, LPS 5 ng/ml; for NFκB inhibition activity: 50 μg/ml, LPS 5 ng/ml overnight, compared to SP163M (and SP22)
Experimental: The NFκB inducible Secreted Embryonic Alkaline Phosphatase (SEAP) was measured in the supernatant and read for absorbance.
as §1

IL-6 = IL-6 secretion in IMG microglial cells after LPS (ELISA); assay type: cell-based; details: for EC50 IL-6: IMG microglial cells, LPS 100 ng/ml, 24 hours
[1] = system: NFκB reporter cells or IMG microglial cells; assay: Cytotoxicity assay (CellTiter-Glo Luminescent Cell Viability Assay); details: up to 12.5 μg/ml, 24 hours, NFκB reporter cells and IMG microglial cells, FIG. 11
Experimental: IMG cells were treated with peptide derivatives at concentrations at or exceeding those tested for the activity assays (FIGS. 5-7) for 24 hours.

[2] = system: OVA induced allergic asthma; assay: OVA induced allergic asthma mouse model, lung homogenate; assay type: in vivo, mice
Text: Infiltration of immune cells into the lung likely account for the increase in total protein levels in the lung.

[3] = biological target: low-density lipoprotein receptor related protein-1 (LRP-1) on THP1-XBlue-MD2-CD14 NFκB reporter cells (UniProt Q07954 20-4544); assay: cell-based or functional assay
[4] = biological target: low-density lipoprotein receptor related protein-1 (LRP-1) on IMG microglial cells (UniProt Q91ZX7 20-4545, limits assumed); assay: cell-based or functional assay
low-density lipoprotein receptor related protein-1 (LRP-1) on IMG microglial cells, sequence (Q91ZX7 20-4545 limits assumed): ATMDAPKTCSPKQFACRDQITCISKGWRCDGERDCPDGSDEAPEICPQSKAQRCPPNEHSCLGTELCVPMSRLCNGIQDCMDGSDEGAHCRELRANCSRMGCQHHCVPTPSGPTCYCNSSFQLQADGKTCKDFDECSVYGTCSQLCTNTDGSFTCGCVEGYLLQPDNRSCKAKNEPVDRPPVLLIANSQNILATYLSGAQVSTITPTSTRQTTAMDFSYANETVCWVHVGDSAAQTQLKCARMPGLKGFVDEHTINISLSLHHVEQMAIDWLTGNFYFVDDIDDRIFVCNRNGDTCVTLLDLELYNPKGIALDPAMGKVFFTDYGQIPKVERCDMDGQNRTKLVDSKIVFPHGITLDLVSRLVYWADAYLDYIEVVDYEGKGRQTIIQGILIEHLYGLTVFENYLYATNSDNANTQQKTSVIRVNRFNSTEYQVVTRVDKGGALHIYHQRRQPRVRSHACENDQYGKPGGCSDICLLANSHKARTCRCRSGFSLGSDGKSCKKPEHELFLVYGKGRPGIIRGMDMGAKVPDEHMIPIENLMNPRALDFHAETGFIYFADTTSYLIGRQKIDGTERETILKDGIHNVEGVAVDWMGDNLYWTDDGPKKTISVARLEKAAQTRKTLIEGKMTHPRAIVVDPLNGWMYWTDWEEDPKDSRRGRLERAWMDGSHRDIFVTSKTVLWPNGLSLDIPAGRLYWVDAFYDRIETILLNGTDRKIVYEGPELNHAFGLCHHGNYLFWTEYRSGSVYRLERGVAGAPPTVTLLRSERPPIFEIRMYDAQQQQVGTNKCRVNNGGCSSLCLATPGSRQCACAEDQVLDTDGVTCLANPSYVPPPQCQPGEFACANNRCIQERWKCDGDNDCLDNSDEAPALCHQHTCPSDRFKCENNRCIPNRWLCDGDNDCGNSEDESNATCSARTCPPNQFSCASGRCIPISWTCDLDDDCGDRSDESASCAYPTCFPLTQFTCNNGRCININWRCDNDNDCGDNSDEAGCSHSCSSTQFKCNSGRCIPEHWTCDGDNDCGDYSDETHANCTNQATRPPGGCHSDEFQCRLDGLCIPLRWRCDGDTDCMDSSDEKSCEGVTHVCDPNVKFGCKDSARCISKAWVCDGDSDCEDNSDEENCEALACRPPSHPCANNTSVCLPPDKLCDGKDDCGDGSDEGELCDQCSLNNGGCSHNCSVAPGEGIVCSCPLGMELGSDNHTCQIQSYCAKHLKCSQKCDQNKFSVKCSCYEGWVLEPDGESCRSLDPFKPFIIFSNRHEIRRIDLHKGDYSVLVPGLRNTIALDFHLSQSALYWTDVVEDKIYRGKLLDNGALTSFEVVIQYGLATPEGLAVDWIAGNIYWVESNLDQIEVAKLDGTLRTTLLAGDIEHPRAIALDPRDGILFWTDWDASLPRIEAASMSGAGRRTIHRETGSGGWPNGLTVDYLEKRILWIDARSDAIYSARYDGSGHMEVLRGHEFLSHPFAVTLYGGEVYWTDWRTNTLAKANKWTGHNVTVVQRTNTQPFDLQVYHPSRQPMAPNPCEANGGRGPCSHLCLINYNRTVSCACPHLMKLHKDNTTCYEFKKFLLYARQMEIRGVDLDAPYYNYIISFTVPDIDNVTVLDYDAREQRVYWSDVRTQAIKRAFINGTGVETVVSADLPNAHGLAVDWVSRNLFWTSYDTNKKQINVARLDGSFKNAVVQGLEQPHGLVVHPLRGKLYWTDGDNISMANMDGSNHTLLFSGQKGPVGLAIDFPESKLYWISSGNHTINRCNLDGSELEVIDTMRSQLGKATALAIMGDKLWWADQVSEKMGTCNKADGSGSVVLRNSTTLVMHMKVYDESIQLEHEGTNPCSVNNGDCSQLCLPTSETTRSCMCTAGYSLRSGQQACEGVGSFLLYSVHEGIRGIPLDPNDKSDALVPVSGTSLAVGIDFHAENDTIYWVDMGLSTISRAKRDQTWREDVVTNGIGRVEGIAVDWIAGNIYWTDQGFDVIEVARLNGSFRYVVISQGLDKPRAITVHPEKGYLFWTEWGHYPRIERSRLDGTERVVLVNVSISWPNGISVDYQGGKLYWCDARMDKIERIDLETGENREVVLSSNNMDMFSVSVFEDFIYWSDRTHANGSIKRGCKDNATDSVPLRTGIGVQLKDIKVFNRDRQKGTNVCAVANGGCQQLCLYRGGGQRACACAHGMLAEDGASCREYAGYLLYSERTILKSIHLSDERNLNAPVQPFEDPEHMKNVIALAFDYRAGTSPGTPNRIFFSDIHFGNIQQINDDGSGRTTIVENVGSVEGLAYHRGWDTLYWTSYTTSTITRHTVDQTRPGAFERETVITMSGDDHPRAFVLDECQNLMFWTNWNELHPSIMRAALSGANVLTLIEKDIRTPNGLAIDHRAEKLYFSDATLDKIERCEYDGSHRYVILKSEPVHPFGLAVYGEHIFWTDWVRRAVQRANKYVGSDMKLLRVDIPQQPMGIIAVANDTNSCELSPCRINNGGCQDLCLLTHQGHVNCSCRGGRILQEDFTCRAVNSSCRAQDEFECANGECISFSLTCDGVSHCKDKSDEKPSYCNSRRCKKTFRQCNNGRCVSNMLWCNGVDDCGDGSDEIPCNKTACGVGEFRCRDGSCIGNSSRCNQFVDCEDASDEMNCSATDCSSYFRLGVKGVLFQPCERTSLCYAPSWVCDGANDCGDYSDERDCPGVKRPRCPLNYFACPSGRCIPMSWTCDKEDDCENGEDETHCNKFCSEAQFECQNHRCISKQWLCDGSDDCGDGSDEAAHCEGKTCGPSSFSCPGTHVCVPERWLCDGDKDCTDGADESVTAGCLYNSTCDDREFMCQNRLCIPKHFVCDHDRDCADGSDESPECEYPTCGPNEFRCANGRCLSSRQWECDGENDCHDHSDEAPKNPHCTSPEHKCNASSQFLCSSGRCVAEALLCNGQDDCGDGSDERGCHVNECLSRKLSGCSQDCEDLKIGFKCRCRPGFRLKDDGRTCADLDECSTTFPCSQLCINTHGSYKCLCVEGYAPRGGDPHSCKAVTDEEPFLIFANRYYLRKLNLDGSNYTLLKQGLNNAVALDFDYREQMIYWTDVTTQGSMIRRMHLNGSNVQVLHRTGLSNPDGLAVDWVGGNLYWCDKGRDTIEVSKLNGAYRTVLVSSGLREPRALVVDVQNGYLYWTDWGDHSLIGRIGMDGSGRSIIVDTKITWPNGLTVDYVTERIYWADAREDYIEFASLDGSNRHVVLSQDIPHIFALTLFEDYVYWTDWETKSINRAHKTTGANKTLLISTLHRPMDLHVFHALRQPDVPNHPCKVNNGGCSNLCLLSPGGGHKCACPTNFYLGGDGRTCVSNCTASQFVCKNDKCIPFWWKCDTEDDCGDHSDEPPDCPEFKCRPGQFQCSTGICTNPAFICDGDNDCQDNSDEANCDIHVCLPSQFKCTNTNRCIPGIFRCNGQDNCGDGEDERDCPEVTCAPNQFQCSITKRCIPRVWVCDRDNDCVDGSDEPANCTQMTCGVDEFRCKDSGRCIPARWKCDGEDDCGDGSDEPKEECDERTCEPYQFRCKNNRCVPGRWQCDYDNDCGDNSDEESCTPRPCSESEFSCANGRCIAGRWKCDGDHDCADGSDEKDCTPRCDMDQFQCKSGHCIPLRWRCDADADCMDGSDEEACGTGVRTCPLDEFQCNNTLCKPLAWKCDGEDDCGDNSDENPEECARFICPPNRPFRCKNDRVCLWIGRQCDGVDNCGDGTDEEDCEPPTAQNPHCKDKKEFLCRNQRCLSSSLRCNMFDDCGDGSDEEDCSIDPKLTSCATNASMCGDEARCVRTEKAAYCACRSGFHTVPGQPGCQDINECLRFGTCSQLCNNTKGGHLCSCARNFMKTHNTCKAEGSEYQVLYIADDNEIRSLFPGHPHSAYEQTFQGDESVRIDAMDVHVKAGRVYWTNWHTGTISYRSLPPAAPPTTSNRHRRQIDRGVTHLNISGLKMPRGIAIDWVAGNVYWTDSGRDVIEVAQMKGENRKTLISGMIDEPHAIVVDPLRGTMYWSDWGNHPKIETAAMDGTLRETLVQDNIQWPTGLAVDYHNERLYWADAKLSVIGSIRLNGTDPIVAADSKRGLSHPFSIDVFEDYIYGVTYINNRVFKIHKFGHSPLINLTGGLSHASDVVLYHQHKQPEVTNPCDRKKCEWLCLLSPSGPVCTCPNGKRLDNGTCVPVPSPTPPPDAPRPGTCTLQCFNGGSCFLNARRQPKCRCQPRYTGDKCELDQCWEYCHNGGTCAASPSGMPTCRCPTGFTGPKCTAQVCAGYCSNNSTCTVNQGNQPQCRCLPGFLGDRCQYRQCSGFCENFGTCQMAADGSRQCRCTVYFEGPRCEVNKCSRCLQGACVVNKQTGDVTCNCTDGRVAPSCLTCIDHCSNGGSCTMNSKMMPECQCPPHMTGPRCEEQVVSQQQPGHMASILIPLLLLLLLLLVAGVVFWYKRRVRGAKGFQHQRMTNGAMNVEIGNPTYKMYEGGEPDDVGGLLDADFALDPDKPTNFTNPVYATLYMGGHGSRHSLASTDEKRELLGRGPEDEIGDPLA

serine protease TMPRSS2 = serine protease TMPRSS2 (UniProt O15393 1-492, limits assumed); assay: cell-based or functional assay
serine protease TMPRSS2, sequence (O15393 whole entry): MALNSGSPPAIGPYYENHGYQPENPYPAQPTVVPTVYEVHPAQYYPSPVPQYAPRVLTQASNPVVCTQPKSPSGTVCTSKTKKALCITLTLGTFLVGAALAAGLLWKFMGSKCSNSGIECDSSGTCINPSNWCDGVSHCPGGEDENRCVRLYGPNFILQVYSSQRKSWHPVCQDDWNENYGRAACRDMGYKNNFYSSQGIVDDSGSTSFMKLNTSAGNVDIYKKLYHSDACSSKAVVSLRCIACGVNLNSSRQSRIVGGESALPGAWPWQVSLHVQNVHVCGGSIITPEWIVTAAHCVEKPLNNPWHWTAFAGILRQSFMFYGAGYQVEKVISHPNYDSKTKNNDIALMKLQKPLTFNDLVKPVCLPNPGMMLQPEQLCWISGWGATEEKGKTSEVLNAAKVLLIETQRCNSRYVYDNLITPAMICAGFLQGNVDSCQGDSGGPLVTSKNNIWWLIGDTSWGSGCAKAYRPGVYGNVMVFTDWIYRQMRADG

[5] = FIG. 6B/7, up to 50 μg/mL, versus SP163M, SA7

Ac- RRRCFV[Nal]L[Nle]C (cyclic) [Peptide A5]
activity in reducing TNFα activation (TNFα): improved activities in reducing TNFα activation

Ac- RRR[Dap]FT[Nal]L[Nle]D (cyclic) [Peptide A2-1]
activity in reducing NFκB activation (NFκB; [5]): superior activities
EC50 NFκB (NFκB): 5.77 mg/L
activity in reducing TNFα (TNFα): superior activities in reducing TNFα
EC50 TNFα (TNFα): 12.99 mg/L
EC50 IL-6 (IL-6): 9.644 mg/L

Ac-EEEVKFNKPFVFL[Nle]EEE [SA5]
NFκB inhibition activity (NFκB): minimal NFκB inhibition activity

Ac-HHHPFVFLMHHH [SA1]
NFκB inhibition activity (NFκB): minimal NFκB inhibition activity

Ac-HHHPFVFL[Nle]HHH [SA2]
NFκB inhibition activity (NFκB): minimal NFκB inhibition activity

Ac-KKKPFVFL[Nle]KKK [SA4]
NFκB inhibition activity (NFκB): minimal NFκB inhibition activity

Ac-RRRCFTFL[Nle]C (also: cyclic (positions not given here)) [Peptide A8]
activity in reducing TNFα activation (TNFα): improved activities in reducing TNFα activation

Ac-RRRCPFVFL[Nle]CRRR (cysteine pairing not given here) [SA6]
NFκB inhibition activity (NFκB): improved activity in NFκB inhibition

Ac-RRRDFVFL[Nle][Dap] (also: cyclic (positions not given here)) [Peptide A10]
activity in reducing TNFα activation (TNFα): improved activities in reducing TNFα activation

Ac-RRRPFVFL[Nle]RRR [SA3]
NFκB inhibition activity (NFκB): improved activity in NFκB inhibition; also recorded: more effective in reducing NFκB activation

HN- RRRAT[Nal]L[NIe]D (cyclic) [Peptide A3-14]
activity in reducing NFκB activation (NFκB; FIG. 9, 1.56 to 12.5 μg/ml): superior activities in reducing NFκB activation
EC50 NFκB (NFκB): 3.775 mg/L
EC50 TNFα (TNFα): 6 mg/L
activity in reducing IL-6 secretion (IL-6; FIG. 10, up to 12.5 μg/ml, LPS 100 ng/ml 24 hours): superior activities in reducing IL-6 secretion
EC50 IL-6 (IL-6): 0.605 mg/L
cytotoxic effects [1]: no cytotoxic effects

HN- RRRFTWL[dS]D (cyclic) (not fully specified (bridges); printed as HN- RRRFTWL[dS]D (cyclic); also: cyclic, mode of cyclisation not given here) [Peptide A3-16]
cytotoxic effects [1]: no cytotoxic effects

HN- RRRFT[Nal]L[dS]D (cyclic) [Peptide A3-15]
cytotoxic effects [1]: no cytotoxic effects

HN- RRRFT[Nal]]LD (cyclic) (cyclo(RRRFT[Nal]LD)) [Peptide A3-1]
cytotoxic effects [1]: no cytotoxic effects

HN- RRRFVFL[dDap]D (cyclic) (not fully specified (bridges); printed as HN- RRRFVFL[dDap]D (cyclic); also: cyclic, ring not given here) [Peptide A3-10]
activity in reducing NFκB activation (NFκB; FIG. 9, 1.56 to 12.5 μg/ml): superior activities in reducing NFκB activation

HN- [rK]RRFT[Nal]]LD (cyclic) ([rK]RRFT[Nal]LD; lactam 1-8) [Peptide A3-2]
cytotoxic effects [1]: no cytotoxic effects

HN-RRRFT[Nal]L[Nle]D (cyclic) [Peptide A2-2]
activity in reducing NFκB activation (NFκB; [5]): superior activities
activity in reducing TNFα (TNFα): superior activities in reducing TNFα

HN-RRRFVFLD (cyclic) (not fully specified; cyclised or stapled) [Peptide A2-4]
activity in reducing NFκB activation (NFκB; [5]): superior activities
activity in reducing TNFα (TNFα): superior activities in reducing TNFα

HN-RRRFVFL[Nle]D (cyclic) [Peptide A15]
EC50 NFκB (NFκB): 5.053 mg/L
activity in reducing TNFα activation (TNFα): improved activities in reducing TNFα activation
EC50 TNFα (TNFα): 36.75 mg/L
EC50 IL-6 (IL-6): 32.39 mg/L

HN-RRRFVFL[dS]D (cyclic) (RRRFVFLSD; not fully specified; D-residues; cyclised or stapled) [Peptide A2-5]
activity in reducing NFκB activation (NFκB; [5]): superior activities
activity in reducing TNFα (TNFα): superior activities in reducing TNFα
TSLP level in lung homogenate ([2]; compared to ova-induced vehicle treated mice, p=0.026): significantly lower levels of TSLP
total protein levels in the lung ([2]; compared to vehicle treated animals, p<0.005): significantly decreased
TH-2 mediated cytokines IL-5, IL-4 and IL-13 in lung tissue ([2]; compared with vehicle treated mice): reduction of TH-2 mediated cytokines IL-5, IL-4 and IL-13

B1: SERPIN peptide derivative A2-5, HN-RRRFVFL[dS]D (cyclic) (peptide)
peptide: RRRFVFLSD
modifications: not fully specified; D-Ser at position 8; cyclic (HN- at the N-terminus (so in the source))
EC50, NFκB (reduction of NFκB activation, SEAP reporter cells, LPS) [3]: 1.47 mg/L
EC50, IL-6 (IMG microglial cells, LPS, ELISA) [4]: 1.4 mg/L
EC50, TNFα (IMG microglial cells, LPS, ELISA) [4]: 2.39 mg/L

Ac-RRRCPFVFL[Nle]C (disulfide 4-11 (inferred)) [SERPIN peptide derivative SA7, Ac-RRRCPFVFL[Nle]C (cyclic)]
IC50, protease TMPRSS2 activity in an overexpressing cell system (serine protease TMPRSS2): 0.083 mg/L
EC50, NFκB (reduction of NFκB activation, SEAP reporter cells, LPS) [3]: 470 mg/L
EC50, IL-6 (IMG microglial cells, LPS, ELISA) [4]: 318 mg/L
EC50, TNFα (IMG microglial cells, LPS, ELISA) [4]: 124 mg/L

RRRFVFLD (not fully specified; cyclic (HN- at the N-terminus (so in the source))) [SERPIN peptide derivative A2-4, HN-RRRFVFLD (cyclic)]
EC50, NFκB (reduction of NFκB activation, SEAP reporter cells, LPS) [3]: 5.25 mg/L
EC50, IL-6 (IMG microglial cells, LPS, ELISA) [4]: 11.3 mg/L
EC50, TNFα (IMG microglial cells, LPS, ELISA) [4]: 12.5 mg/L

Ac-RRR[Dap]FT[Nal]L[Nle]D [SERPIN peptide derivative A2-1, Ac-RRR[Dap]FT[Nal]L[Nle]D (cyclic)]
EC50, NFκB (reduction of NFκB activation, SEAP reporter cells, LPS) [3]: 5.77 mg/L
EC50, IL-6 (IMG microglial cells, LPS, ELISA) [4]: 9.64 mg/L
EC50, TNFα (IMG microglial cells, LPS, ELISA) [4]: 13 mg/L

B2: SERPIN peptide derivative A15, HN-RRRFVFL[Nle]D (cyclic) (peptide)
peptide: RRRFVFLXD
modifications: not fully specified; Nle (norleucine) at position 8; cyclic: head-to-tail linker between the amino group of the N-terminal Arg and the side-chain carboxylic acid of the C-terminal Asp, ring closing length 12 C-C bonds
EC50, NFκB (reduction of NFκB activation, SEAP reporter cells, LPS) [3]: 5.05 mg/L
EC50, IL-6 (IMG microglial cells, LPS, ELISA) [4]: 32.4 mg/L
EC50, TNFα (IMG microglial cells, LPS, ELISA) [4]: 36.8 mg/L

Ac-RRRKFT[Nal]LD (lactam 4-9) [SERPIN peptide derivative A3-7, Ac-RRRKFT[Nal]LD (cyclic)]
EC50, NFκB (reduction of NFκB activation, SEAP reporter cells, LPS) [3]: 22.4 mg/L
EC50, IL-6 (IMG microglial cells, LPS, ELISA) [4]: 3.65 mg/L

B3: SERPIN peptide derivative A3-14, HN-RRRAT[Nal]L[Nle]D (cyclic) (peptide)
peptide: RRRAT[Nal]L[Nle]D
modifications: not fully specified (bridges); printed as HN- RRRAT[Nal]L[NIe]D (cyclic); also: cyclic, ring not given here
EC50, NFκB (reduction of NFκB activation, SEAP reporter cells, LPS) [3]: 3.77 mg/L
EC50, IL-6 (IMG microglial cells, LPS, ELISA) [4]: 0.605 mg/L
EC50, TNFα (IMG microglial cells, LPS, ELISA) [4]: 6 mg/L

VKFNKPFVFLMIEQNTK [SERPIN peptide SP16 (VKFNKPFVFLMIEQNTK)]
EC50, NFκB (reduction of NFκB activation, SEAP reporter cells, LPS) [3]: 152 mg/L
EC50, TNFα (IMG microglial cells, LPS, ELISA) [4]: ~618 mg/L

B4: SERPIN peptide derivative A3-10, HN-RRRFVFL[dDap]D (cyclic) (peptide)
peptide: RRRFVFLXD
modifications: not fully specified; D-Dap at position 8; cyclic (HN- at the N-terminus (so in the source))
EC50, NFκB (reduction of NFκB activation, SEAP reporter cells, LPS) [3]: 2.16 mg/L
EC50, IL-6 (IMG microglial cells, LPS, ELISA) [4]: 58.5 mg/L
EC50, TNFα (IMG microglial cells, LPS, ELISA) [4]: 34.6 mg/L

RRRFVFLAD (not fully specified; cyclic (HN- at the N-terminus (so in the source))) [SERPIN peptide derivative A2-3, HN-RRRFVFLAD (cyclic)]
EC50, NFκB (reduction of NFκB activation, SEAP reporter cells, LPS) [3]: 2.65 mg/L
EC50, IL-6 (IMG microglial cells, LPS, ELISA) [4]: 3.38 mg/L
EC50, TNFα (IMG microglial cells, LPS, ELISA) [4]: 11.8 mg/L
